According to PubChem BioAssay (NCI):
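48-hour exposure; five concentrations; linearly interpolated endpoints. GI50 = concentration required for 50% inhibition of growth. TGI: concentration producing complete growth inhibition.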

What was measured:
Assay in all cases: inhibition of tumour cell growth, NCI panel, 48 h
786-0 renal = test system: 786-0 renal
A498 renal = test system: A498 renal
A549 NSCLC = test system: A549 NSCLC
ACHN renal = test system: ACHN renal
BT-549 breast = test system: BT-549 breast
CAKI-1 renal = test system: CAKI-1 renal
CCRF-CEM leukemia = test system: CCRF-CEM leukemia
COLO 205 colon = test system: COLO 205 colon
DU-145 prostate = test system: DU-145 prostate
EKVX NSCLC = test system: EKVX NSCLC
HCC-2998 colon = test system: HCC-2998 colon
HCT-116 colon = test system: HCT-116 colon
HCT-15 colon = test system: HCT-15 colon
HL-60(TB) leukemia = test system: HL-60(TB) leukemia
HOP-62 NSCLC = test system: HOP-62 NSCLC
HOP-92 NSCLC = test system: HOP-92 NSCLC
HS 578T breast = test system: HS 578T breast
HT29 colon = test system: HT29 colon
IGROV1 ovarian = test system: IGROV1 ovarian
K-562 leukemia = test system: K-562 leukemia
KM12 colon = test system: KM12 colon
LOX IMVI melanoma = test system: LOX IMVI melanoma
M14 melanoma = test system: M14 melanoma
MALME-3M melanoma = test system: MALME-3M melanoma
MCF7 breast = test system: MCF7 breast
MDA-MB-231 breast = test system: MDA-MB-231 breast
MDA-MB-435 = test system: MDA-MB-435
MOLT-4 leukemia = test system: MOLT-4 leukemia
NCI-H226 lung = test system: NCI-H226 lung
NCI-H23 lung = test system: NCI-H23 lung
NCI-H460 lung = test system: NCI-H460 lung
NCI-H522 lung = test system: NCI-H522 lung
NCI/ADR-RES ovarian = test system: NCI/ADR-RES ovarian
OVCAR-3 ovarian = test system: OVCAR-3 ovarian
OVCAR-4 ovarian = test system: OVCAR-4 ovarian
OVCAR-5 ovarian = test system: OVCAR-5 ovarian
OVCAR-8 ovarian = test system: OVCAR-8 ovarian
PC-3 prostate = test system: PC-3 prostate
RPMI-8226 leukemia = test system: RPMI-8226 leukemia
RXF 393 renal = test system: RXF 393 renal
SF-268 CNS = test system: SF-268 CNS
SF-295 CNS = test system: SF-295 CNS
SF-539 CNS = test system: SF-539 CNS
SK-MEL-2 melanoma = test system: SK-MEL-2 melanoma
SK-MEL-28 melanoma = test system: SK-MEL-28 melanoma
SK-MEL-5 melanoma = test system: SK-MEL-5 melanoma
SK-OV-3 ovarian = test system: SK-OV-3 ovarian
SN12C renal = test system: SN12C renal
SNB-19 CNS = test system: SNB-19 CNS
SNB-75 CNS = test system: SNB-75 CNS
SR leukemia = test system: SR leukemia
SW-620 colon = test system: SW-620 colon
T-47D breast = test system: T-47D breast
TK-10 renal = test system: TK-10 renal
U251 CNS = test system: U251 CNS
UACC-257 melanoma = test system: UACC-257 melanoma
UACC-62 melanoma = test system: UACC-62 melanoma
UO-31 renal = test system: UO-31 renal

In the case of `Cn1cc(-c2csc(-c3c[nH]c4ccccc34)n2)c2cccnc21`, the GI50 (786-0 renal) is reported as 2.66 µM, the TGI (786-0 renal) is reported as > 91.1 µM and the GI50 (A498 renal) is reported as 0.688 µM. For the same molecule, the TGI (A498 renal) was 46.6 µM, the GI50 (A549 NSCLC) was 0.656 µM and the TGI (A549 NSCLC) was > 64.4 µM. For the same molecule, the GI50 (ACHN renal) was 0.97 µM, the TGI (ACHN renal) was > 100 µM and the GI50 (BT-549 breast) was 1.16 µM. For the same molecule, the TGI (BT-549 breast) was 38.7 µM, the GI50 (CAKI-1 renal) was 0.291 µM and the TGI (CAKI-1 renal) was > 37.9 µM. The GI50 (CCRF-CEM leukemia) was 0.534 µM, the TGI (CCRF-CEM leukemia) was > 100 µM and the GI50 (COLO 205 colon) was 0.431 µM. The TGI (COLO 205 colon) was 6.98 µM, the GI50 (DU-145 prostate) was 1.05 µM and the TGI (DU-145 prostate) was 34.4 µM. For the same molecule, the GI50 (EKVX NSCLC) was 0.636 µM, the TGI (EKVX NSCLC) was > 40.5 µM and the GI50 (HCC-2998 colon) was 1.27 µM. The TGI (HCC-2998 colon) was > 100 µM, the GI50 (HCT-116 colon) was 0.363 µM and the TGI (HCT-116 colon) was > 100 µM. For the same molecule, the GI50 (HCT-15 colon) was 0.503 µM, the TGI (HCT-15 colon) was > 100 µM and the GI50 (HL-60(TB) leukemia) was 0.343 µM. For the same molecule, the TGI (HL-60(TB) leukemia) was > 100 µM, the GI50 (HOP-62 NSCLC) was 0.718 µM and the TGI (HOP-62 NSCLC) was 27 µM. The GI50 (HOP-92 NSCLC) was 0.915 µM, the TGI (HOP-92 NSCLC) was 14.1 µM and the GI50 (HS 578T breast) was 5.9 µM. The TGI (HS 578T breast) was > 100 µM, the GI50 (HT29 colon) was 0.324 µM and the TGI (HT29 colon) was 1.72 µM. For the same molecule, the GI50 (IGROV1 ovarian) was 0.308 µM, the TGI (IGROV1 ovarian) was 22.9 µM and the GI50 (K-562 leukemia) was 0.232 µM. The TGI (K-562 leukemia) was > 100 µM, the GI50 (KM12 colon) was 0.413 µM and the TGI (KM12 colon) was 77.2 µM. The GI50 (LOX IMVI melanoma) was 0.537 µM, the TGI (LOX IMVI melanoma) was > 100 µM and the GI50 (M14 melanoma) was 0.356 µM. For the same molecule, the TGI (M14 melanoma) was > 100 µM, the GI50 (MALME-3M melanoma) was 0.215 µM and the TGI (MALME-3M melanoma) was 16.2 µM. For the same molecule, the GI50 (MCF7 breast) was 1.07 µM, the TGI (MCF7 breast) was > 100 µM and the GI50 (MDA-MB-231 breast) was 1.33 µM. The TGI (MDA-MB-231 breast) was 86.2 µM, the GI50 (MDA-MB-435) was 0.0804 µM and the TGI (MDA-MB-435) was 0.323 µM. For the same molecule, the GI50 (MOLT-4 leukemia) was 0.798 µM, the TGI (MOLT-4 leukemia) was > 100 µM and the GI50 (NCI-H226 lung) was 2.55 µM. The TGI (NCI-H226 lung) was > 66 µM, the GI50 (NCI-H23 lung) was 1.16 µM and the TGI (NCI-H23 lung) was > 100 µM. For the same molecule, the GI50 (NCI-H460 lung) was 0.37 µM, the TGI (NCI-H460 lung) was > 42.2 µM and the GI50 (NCI-H522 lung) was 0.211 µM. For the same molecule, the TGI (NCI-H522 lung) was 2.01 µM, the GI50 (NCI/ADR-RES ovarian) was 0.28 µM and the TGI (NCI/ADR-RES ovarian) was 12.4 µM. The GI50 (OVCAR-3 ovarian) was 0.297 µM, the TGI (OVCAR-3 ovarian) was 3 µM and the GI50 (OVCAR-4 ovarian) was 2.89 µM. For the same molecule, the TGI (OVCAR-4 ovarian) was > 100 µM, the GI50 (OVCAR-5 ovarian) was 8.88 µM and the TGI (OVCAR-5 ovarian) was > 100 µM. For the same molecule, the GI50 (OVCAR-8 ovarian) was 0.776 µM, the TGI (OVCAR-8 ovarian) was > 91.9 µM and the GI50 (PC-3 prostate) was 0.988 µM. For the same molecule, the TGI (PC-3 prostate) was > 66.7 µM, the GI50 (RPMI-8226 leukemia) was 1.84 µM and the TGI (RPMI-8226 leukemia) was > 100 µM. It also gave a GI50 (RXF 393 renal) of 1.1 µM, a TGI (RXF 393 renal) of 9.84 µM and a GI50 (SF-268 CNS) of 0.813 µM. For the same molecule, the TGI (SF-268 CNS) was > 100 µM, the GI50 (SF-295 CNS) was 0.305 µM and the TGI (SF-295 CNS) was 6.09 µM. It also gave a GI50 (SF-539 CNS) of 0.655 µM, a TGI (SF-539 CNS) of 9.05 µM and a GI50 (SK-MEL-2 melanoma) of 0.498 µM. For the same molecule, the GI50 (SK-MEL-28 melanoma) was 3.12 µM, the TGI (SK-MEL-28 melanoma) was > 100 µM and the GI50 (SK-MEL-5 melanoma) was 0.391 µM. It also gave a TGI (SK-MEL-5 melanoma) of 11.7 µM, a GI50 (SK-OV-3 ovarian) of 0.966 µM and a TGI (SK-OV-3 ovarian) of 23 µM. The GI50 (SN12C renal) was 1.47 µM, the TGI (SN12C renal) was > 100 µM and the GI50 (SNB-19 CNS) was 0.825 µM. For the same molecule, the TGI (SNB-19 CNS) was > 75.1 µM, the GI50 (SNB-75 CNS) was 0.542 µM and the TGI (SNB-75 CNS) was 4.82 µM. For the same molecule, the GI50 (SR leukemia) was 0.437 µM, the TGI (SR leukemia) was > 100 µM and the GI50 (SW-620 colon) was 0.367 µM. The TGI (SW-620 colon) was > 72.5 µM, the GI50 (T-47D breast) was 0.783 µM and the TGI (T-47D breast) was > 27.5 µM. For the same molecule, the GI50 (TK-10 renal) was 1.56 µM, the TGI (TK-10 renal) was 18.1 µM and the GI50 (U251 CNS) was 0.415 µM. The TGI (U251 CNS) was 16.2 µM, the GI50 (UACC-257 melanoma) was 1.65 µM and the TGI (UACC-257 melanoma) was > 90.3 µM. For the same molecule, the GI50 (UACC-62 melanoma) was 0.448 µM, the TGI (UACC-62 melanoma) was > 100 µM and the GI50 (UO-31 renal) was 0.523 µM. The TGI (UO-31 renal) was > 44.1 µM.
